From patent US20120196766A1, “Therapeutic Use of Farnesyltransferase Inhibitors and Methods of Monitoring the Efficacy Thereof” (priority 2004, published 2012)

Test system: THP-1 cells
Test: cDNA microarray analysis of LPS-induced gene transcription in THP-1 cells
Type: cell-based, Human
Conditions: LPS 100 ng/ml, tipifarnib 5 μM
Description: THP-1 cells were cultured in RPMI1640 medium, supplemented with 10% FBS/100 units/ml Penicillin/10 μg/ml Streptomycin at 37° C., under 5% CO2. […] For the untreated control group (no LPS, no compound) and LPS alone group, equivalent volumes of DMSO were added to the medium. Cells were cultured at 37° C. and pellets were collected at 0 hr, 1 hr, 3 hr, 6 hr, 12 hr & 24 hr. Cell pellets were stored at −80° C. if RNA isolation was not conducted immediately. For experiments to study cytokine secretion in culture supernatants, THP-1 cells were washed twice with PBS, resuspended at 3.4×10^5/ml and cultured in 96-well plates at 250 μL, per well at 37° C. […] Supernatants were collected at different time points as indicated in the figures and were kept at ≦−20° C. until analysis of cytokine production.
Total RNA was isolated using RNeasy mini kit from QIAGEN (Valencia, Calif.) according to the manufacturer's instructions. RNA samples were stored at −80° C.
Five μg of total RNA was linearly amplified to double-stranded cDNA using T7-based amplification. The cDNA was purified using the QIAquick 96 PCR purification kit (QIAGEN Valencia, Calif.), and used to generate amplified (a) RNA using AmpliScribe™ T7 High Yield Transcription Kit (Epicentre, Madison, Wis.). Ten μg of purified aRNA was reverse transcribed to cDNA using the SuperScript RTII kit (Invitrogen) and labeled by direct incorporation of Cy3-dCTP. The generated cDNA probe was used for hybridizing to cDNA microarrays.
Each clone was spotted in duplicate on the array.

## Cn1cncc1C(N)(c1ccc(Cl)cc1)c1ccc2c(c1)c(-c1cccc(Cl)c1)cc(=O)n2C (single isomer, unassigned; (+)) [tipifarnib, (+)-6-[amino(4-chlorophenyl)(1-methyl-1H-imidazol-5-yl)methyl]-4-(3-chlorophenyl)-1-methyl-2(1H)-quinolinone]
1 hr
  Fold-change (tipifarnib/LPS vs LPS) ABCB8: 1.07
  Fold-change (tipifarnib/LPS vs LPS) B2M: 1.15
  Fold-change (tipifarnib/LPS vs LPS) C3AR1: 1.00
  Fold-change (tipifarnib/LPS vs LPS) CCL2: −1.07
  Fold-change (tipifarnib/LPS vs LPS) CCL3: −1.07
  Fold-change (tipifarnib/LPS vs LPS) CCL4: 1.07
  Fold-change (tipifarnib/LPS vs LPS) CCL8: −1.07
  Fold-change (tipifarnib/LPS vs LPS) CCND1: 1.00
  Fold-change (tipifarnib/LPS vs LPS) CXCL11: 1.00
  Fold-change (tipifarnib/LPS vs LPS) GNPNAT1: 1.00
  Fold-change (tipifarnib/LPS vs LPS) IER3: 1.32
  Fold-change (tipifarnib/LPS vs LPS) IFI16: 1.07
  Fold-change (tipifarnib/LPS vs LPS) IFIT1: 1.00
  Fold-change (tipifarnib/LPS vs LPS) IFNB1: −1.23
  Fold-change (tipifarnib/LPS vs LPS) IGFBP3: 1.00
  Fold-change (tipifarnib/LPS vs LPS) IL1B: 1.07
  Fold-change (tipifarnib/LPS vs LPS) IL1RN: −1.15
  Fold-change (tipifarnib/LPS vs LPS) IL8: −1.07
  Fold-change (tipifarnib/LPS vs LPS) KCNK17: −1.07
  Fold-change (tipifarnib/LPS vs LPS) LAP3: −1.07
  Fold-change (tipifarnib/LPS vs LPS) LGR7: 1.23
  Fold-change (tipifarnib/LPS vs LPS) MMP9: −1.07
  Fold-change (tipifarnib/LPS vs LPS) MX1: 1.00
  Fold-change (tipifarnib/LPS vs LPS) MYD88: 1.07
  Fold-change (tipifarnib/LPS vs LPS) NEXN: 1.00
  Fold-change (tipifarnib/LPS vs LPS) NFKB2: −1.07
  Fold-change (tipifarnib/LPS vs LPS) PLAUR: 1.00
  Fold-change (tipifarnib/LPS vs LPS) PTX3: 1.15
  Fold-change (tipifarnib/LPS vs LPS) S100A9: 1.00
  Fold-change (tipifarnib/LPS vs LPS) STAT1: 1.23
  Fold-change (tipifarnib/LPS vs LPS) TAP1: −1.23
  Fold-change (tipifarnib/LPS vs LPS) TAP2: 1.07
  Fold-change (tipifarnib/LPS vs LPS) TRIM22: 1.00
  Fold-change (tipifarnib/LPS vs LPS) UBE2L6: 1.00
3 hr
  Fold-change (tipifarnib/LPS vs LPS) ABCB8: 1.00
  Fold-change (tipifarnib/LPS vs LPS) B2M: 1.00
  Fold-change (tipifarnib/LPS vs LPS) C3AR1: 1.07
  Fold-change (tipifarnib/LPS vs LPS) CCL2: −1.32
  Fold-change (tipifarnib/LPS vs LPS) CCL3: 1.00
  Fold-change (tipifarnib/LPS vs LPS) CCL8: 1.00
  Fold-change (tipifarnib/LPS vs LPS) CCND1: −1.07
  Fold-change (tipifarnib/LPS vs LPS) CXCL11: −1.07
  Fold-change (tipifarnib/LPS vs LPS) GNPNAT1: 1.00
  Fold-change (tipifarnib/LPS vs LPS) IFI16: 1.00
  Fold-change (tipifarnib/LPS vs LPS) IFIT1: 1.00
  Fold-change (tipifarnib/LPS vs LPS) IFNB1: −1.15
  Fold-change (tipifarnib/LPS vs LPS) IGFBP3: −1.07
  Fold-change (tipifarnib/LPS vs LPS) IL1B: 1.32
  Fold-change (tipifarnib/LPS vs LPS) IL1RN: −1.15
  Fold-change (tipifarnib/LPS vs LPS) IL8: −1.23
  Fold-change (tipifarnib/LPS vs LPS) KCNK17: −1.15
  Fold-change (tipifarnib/LPS vs LPS) LAP3: −1.07
  Fold-change (tipifarnib/LPS vs LPS) LGR7: −1.15
  Fold-change (tipifarnib/LPS vs LPS) LY6E: −1.15
  Fold-change (tipifarnib/LPS vs LPS) MMP9: −1.07
  Fold-change (tipifarnib/LPS vs LPS) MX1: −1.07
  Fold-change (tipifarnib/LPS vs LPS) MYD88: −1.15
  Fold-change (tipifarnib/LPS vs LPS) NEXN: 1.00
  Fold-change (tipifarnib/LPS vs LPS) NFKB2: 1.23
  Fold-change (tipifarnib/LPS vs LPS) PLAUR: −1.23
  Fold-change (tipifarnib/LPS vs LPS) PTX3: −1.15
  Fold-change (tipifarnib/LPS vs LPS) S100A9: −1.15
